These are literature values, as cited in patent US20230067378A1, “COMPOSITIONS AND METHODS FOR THE TREATMENT OF ESTROGEN-DEPENDENT DISORDERS” (ObsEva S.A., priority 2018, published 2023).

The conditions of the data set: in vivo; cited from earlier work.

Take `COc1cccc(-c2c(C)n(Cc3c(F)cccc3C(F)(F)F)c(=O)n(C[C@H](NCCCC(=O)O)c3ccccc3)c2=O)c1F` [Elagolix, sodium 4-({(1R)-2-[5-(2-fluoro-3-methoxyphenyl)-3-{[2-fluoro-6-(trifluoromethyl)phenyl]methyl}-4-methyl-2,6-dioxo-3,6-dihydropyrimidin-1(2H)-yl]-1-phenylethyl}amino)butanoate]: the half-life is 2 to 6 h.

On to `CONC(=O)Nc1ccc(-c2sc3c(c2CN(C)C)c(=O)n(-c2ccc(OC)nn2)c(=O)n3Cc2c(F)cccc2F)cc1` [relugolix, N-(4-(1-(2,6-difluorobenzyl)-5-((dimethylamino)methyl)-3-(6-methoxy-3-pyridazinyl)-2,4-dioxo-1,2,3,4-tetrahydrothieno[2,3-d]pyrimidin-6-yl)phenyl)-N′-methoxyurea], for which the half-life is 37 to 42 h.

The term half-life denotes the time in which the quantity being followed falls by half.
